According to patent publication US9856273B2, “ETP derivatives” (priority 2012, dated 2018):

What was measured:
[1] = system: Huh-7 hepatocellular carcinoma cells; experiment: MTS cell viability assay; format: cell-based; details: Homo sapiens
Description: (§1) IC50 Determinations for Ovarian, Liver, Pancreatic, CML, AML Cancer Cell Lines (See e.g. FIGS. 4, 6A-6C, 21, 22A, 22B, 23, 24A-24C, 25A, 25B and 34): MTS assays were performed for cell viability. SKOV3 ovarian cancer, Huh-7 hepatocellular carcinoma, MIA-PaCa2 pancreatic cancer, KCL-22 CML, T315I mutant KCL-22 CML, MOLM-13 AML and MV4-11 AML cells were seeded in 96-well plates (5000 cells/well for solid tumors, 10000 cells/well for blood tumors), incubated overnight at 37° C. in 5% CO2, and exposed to racemic ETP69 or S enantiomer in a dose-dependent manner for 48 h. Dimethyl sulfoxide (DMSO) was used as the vehicle control. Viable cell numbers were determined by tetrazolium conversion to its formazan dye and absorbance was measured at 490 nm using an automated ELISA plate reader. Each experiment was performed in quadruplicate.

[2] = system: KCL-22 CML cells; experiment: MTS cell viability assay; format: cell-based; details: Homo sapiens
Description: as §1

[3] = system: MV4-11 AML cells; experiment: MTS cell viability assay; format: cell-based; details: Homo sapiens
Description: as §1

[4] = system: T315I mutant KCL-22 CML cells; experiment: MTS cell viability assay; format: cell-based; details: Homo sapiens
Description: as §1

[5] = system: MDA-MB-231 triple negative breast cancer cells; experiment: Cell viability assay; format: cell-based
[6] = system: SKOV3 ovarian cancer cells; experiment: Annexin V-FITC apoptosis assay; format: cell-based, human; details: 48 h
Description: Apoptosis Determinations (FIG. 11): Apoptosis assays of human SKOV3 ovarian cancer cells based on […] were carried out using Annexin V-FITC. Briefly, cells were seeded in 6-well plates, incubated overnight at 37° C. in 5% (v/v) CO2 and exposed to ETP69 in a dose-dependent manner for 48 h. DMSO was used as the vehicle control. Cells were analyzed using a FACScan flow cytometer to quantify fluorescence. Apoptotic cells were defined as Annexin V-FITC positive. Each experiment was performed in quadruplicate.

[7] = system: A549 non-small cell lung cancer cells; experiment: MTS cell viability assay, alone and in combination with multi-kinase inhibitor; format: cell-based; details: Homo sapiens
Description: Cell Testing Assays with ETP Derivatives in Combination with DNMT Inhibitors and Multi-Kinase Inhibitors (See FIGS. 12A-12D, 13A-13C and 14A-14C): MTS assays were performed for cell viability for combination study with ETP69 plus DNMT inhibitors or mutikinase inhibitor. Human SKOV3 ovarian and A549 non-small cancer cells were seeded in 96-well plates (5000/well), incubated overnight at 37° C. in 5% CO2, and exposed to ETP69 plus azacitidine, decitabine or sorafenib for 48. Dimethyl sulfoxide (DMSO) was used as the vehicle control. Viable cell numbers were determined by tetrazolium conversion to its formazan dye and absorbance was measured at 490 nm using an automated ELISA plate reader. Each experiment was performed in quadruplicate.
IC50 Determinations for Ovarian, Liver, Pancreatic, CML, AML Cancer Cell Lines (See e.g. FIGS. 4, 6A-6C, 21, 22A, 22B, 23, 24A-24C, 25A, 25B and 34): MTS assays were performed for cell viability. […] Viable cell numbers were determined by tetrazolium conversion to its formazan dye and absorbance was measured at 490 nm using an automated ELISA plate reader. […]

[8] = system: A549 lung cancer SQ xenografts; format: in vivo, mouse; details: A549 xenograft, 10 mg/kg orally once daily for 31 days
Description: Human A549 non-small lung cancer cells (5×10^6) were resuspended in serum-free DMEM medium and Matrigel (ration of 1:1) and subcutaneously injected into the flank of 5-6 weeks old female NOD/SCID/IL-2rg(ko)(NSG). When palpable tumor sizes reached at approximately 50 mm^3, mice were divided into two groups (vehicle=10, treatment=10). Then, ETP69 was orally administered at 10 mg/kg with vehicle (10% DMSO+30% Solutol+60% saline), once daily for 31 days. Tumor volumes were calculated by the formula 1/2a×b^2, where a is the long diameter, and b is the short diameter. Tumor volumes correlate with tumor weights. The statistical significance of group differences was analyzed using a Student's t-test with the two-tailed distribution. P values less than 0.05 were considered statistically significant.

[9] = system: SKOV3 xenografts; format: in vivo, mouse; details: SKOV3 xenograft, 2.5 mg/kg IP once daily for 18 days
Description: Human SKOV3 cancer cells (4×10^6) were resuspended in serum-free McCoy's medium and Matrigel (ration of 1:1) and subcutaneously injected into the flank of 5-6 weeks old female NOD/SCID/IL-2rg(ko)(NSG). When palpable tumor sizes reached at approximately 50 mm^3, mice were divided into two groups (vehicle=9, treatment=9). Then, ETP69 was administered with IP injection at 2.5 mg/kg with vehicle (5% DMSO+15% Solutol+80% H2O), once daily for 18 days. Tumor volumes were calculated by the formula 1/2a×b^2, where a is the long diameter, and b is the short diameter. Tumor volumes correlate with tumor weights. The statistical significance of group differences was analyzed using a Student's t-test with the two-tailed distribution. P values less than 0.05 were considered statistically significant.

[10] = system: transferases (HMT, HAT, DNMT); experiment: Screen against a number of transferases; format: biochemical, human
Description: For histone methyltranferase (HMT), DNA methyltransferase (DNMT) and Histone acetyltransferase (HAT) assays in vitro, human recombinant HMT, DNMT and HAT proteins were mixed with substrates in the reaction buffer (50 mM Tris-HCl (pH 8.5), 5 mM MgCl2, 50 mM NaCl, 1 mM DTT, 1 mM PMSF, 1% DMSO), including histone H3, histone H4, nucleosomes, or core histone. Racemic ETP69, S enantiomer or DMSO as a vehicle control was preincubated in the mixture. Next, for HMTs and DNMT assays, […] of ^3H-SAM was added to the mixture for the reaction initiation and conversion of ^3H-SAM+histone L-lysine to SAH+histone N^6-[methyl-^3H]-L-lysine was monitored with miniatured radioligand-filter binding platform. For p300 HAT assays, the conversion of acetyl-^3H-acetyl coenzyme A to coenzyme A was monitored. The reactions were carried out at 30° C. IC50 values were determined using Excel and GraphPad Prism software.

[11] = system: normal pancreatic epithelial cells; experiment: Viability of normal pancreatic epithelial cells; details: 100 nM to 1000 nM
[12] = Toxicity on intraperitoneal injection or oral administration; details: up to 20 mg/kg, intraperitoneal injection (IP) or oral administration

CN1C(=O)[C@@]23C[C@](C)(C#N)[C@H](c4ccc5c(c4)OCO5)N2C(=O)[C@]1(C)SS3 (racemic) [ETP69, Rac-(3S,6S,7S,8aS)-6-(Benzo[d][1,3]dioxol-5-yl)-2,3,7-trimethyl-1,4-dioxohexahydro-6H-3,8a-epidithiopyrrolo[1,2-a]pyrazine-7-carbonitrile]
IC50 [1]: 3.3 nM | IC50 [2]: 180 nM | IC50 [3]: 1.8 nM | IC50 [4]: 170 nM | viability inhibition [5]: viability inhibition | apoptosis [6]: induces apoptosis | IC50 [7]: 100 nM | toxicity symptoms [8]: no observable toxicity symptoms | tumor volume [8]: decreased | tumor weight [8]: decreased | toxicity symptoms [9]: no observable toxicity symptoms | tumor volume [9]: decreased | tumor weight [9]: decreased | potency against several transferases compared with chaetocin [10]: about ten times more potency | selectivity for histone methyltransferases (SUV39H1; G9a) over histone acetylases (p300) and DNA methyl transferases (DNMT1) [10]: selective | destruction of normal pancreatic cells [11]: little destruction | toxicity [12]: no significant toxicity
